Experiment [1] addresses GST-Syk Full Protein (human) (Homo sapiens, UniProt P43405). Put plainly: Syk kinase inhibition test (HTRF method). The class given is biochemical. The following applies: HTRF, 100 μM ATP, 30 min room temperature, average; read-out: sykHTRF ave IC50. The gist of the method:
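HTRF read-out: after EDTA termination and 1 h with XL665-streptavidin and Eu-anti-phosphotyrosine, the 665/620 nm ratio was measured. The reaction ran 30 min at 20–25 °C with final 6.4 nM human GST-Syk, 250 nM biotinylated peptide, 100 μM ATP, pH 7.0 HEPES buffer, 2% DMSO.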

Experiment [2] deals with cultured human mast cells. Put plainly: Degranulation inhibition test using cultured human mast cells (IgE cross-linking, β-Hexosaminidase release). Type of experiment: cell-based. The note with it: Mast cell; cultured human mast cells, anti-hIgE stimulation, β-Hexosaminidase index, average; read-out: human degranulation ave. IC50. The gist of the method:
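Degranulation was triggered by anti-hIgE (10 μg/mL final, 30 min, 37 °C) after a 10-min compound pretreatment (DMSO 0.1%) of cord-blood CD34+-derived mast cells primed 5 days with IL-4 and IgE. β-Hexosaminidase in supernatant was measured with p-nitrophenyl-GlcNAc substrate (A405), expressed against water-lysed total; IC50 (M).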

Structures are written as SMILES. Where a name gives a salt, the structure may show the parent alone.

With `Cc1ccnc(Nc2cccc(-c3cnc([C@H]4CC[C@H](C(=O)N(CCO)CCO)CC4)s3)n2)c1` [Compound A-302], the IC50 in experiment [1] and in experiment [2] was 100 to 1000 nM each time.

`Cc1ccnc(Nc2cccc(-c3cnc([C@H]4CC[C@H](C(=O)N[C@@H](CO)Cc5cnc[nH]5)CC4)s3)n2)c1` [Compound A-303, N—[(R)-2-hydroxy-1-(3H-imidazol-4-ylmethyl)ethyl]-trans-4-{5-[6-(4-methylpyridin-2-ylamino)pyridin-2-yl]thiazol-2-yl}cyclohexanecarboxamide]: the results for the IC50 in experiment [1] and in experiment [2] were below 100 nM and above 1000 nM, respectively.

Regarding `Cc1ccnc(Nc2cccc(-c3cnc([C@H]4CC[C@H](C(=O)N[C@H](CO)Cc5cnc[nH]5)CC4)s3)n2)c1` [Compound A-304, N—[(S)-2-hydroxy-1-(3H-imidazol-4-ylmethyl)ethyl]-trans-4-{5-[6-(4-methylpyridin-2-ylamino)pyridin-2-yl]thiazol-2-yl}cyclohexanecarboxamide], the 50% inhibitory concentration (IC50) (commonly the concentration at which inhibition is half-maximal) in experiment [1] is below 100 nM; in experiment [2], above 1000 nM.

As to `Cc1ccnc(Nc2cccc(-c3cnc([C@H]4CC[C@H](C(=O)N[C@H]5CC[C@H](O)CC5)CC4)s3)n2)c1` [Compound A-305], the IC50 in experiment [1] and in experiment [2] was 100 to 1000 nM in each case.

For `Cc1ccnc(Nc2cccc(-c3cnc(C4CCN(C(=O)c5ccncc5)CC4)s3)n2)c1` [Compound A-306], the IC50 in experiment [1] and in experiment [2] was 100 to 1000 nM throughout.

Take `O=C([C@H]1CC[C@H](c2ncc(-c3cccc(Nc4cc5ccccc5cn4)n3)s2)CC1)N1CCC(O)CC1` [Compound A-307]: the IC50 in experiment [1] and in experiment [2] was 100 to 1000 nM throughout.

For the compound `COC(=O)NCCc1ncc(-c2cccc(Nc3cc(C)ccn3)n2)s1` [Compound A-308], the IC50 in experiment [1] and in experiment [2] was 100 to 1000 nM in each case.

For `Cc1ccnc(Nc2cccc(-c3cnc([C@H]4CC[C@H](C(=O)NCCN(C)C)CC4)s3)n2)c1` [Compound A-309, N-(2-dimethylaminoethyl)-trans-4-{5-[6-(4-methylpyridin-2-ylamino)pyridin-2-yl]thiazol-2-yl}cyclohexanecarboxamide], the IC50 in experiment [1] is below 100 nM; in experiment [2], 100 to 1000 nM.

As for `Cc1ccnc(Nc2cccc(-c3cnc([C@H]4CC[C@H](C(=O)NC5(CO)CCCC5)CC4)s3)n2)c1` [Compound A-310], the figures for the IC50 in experiment [1] and in experiment [2] were 100 to 1000 nM and above 1000 nM, respectively.

On to `Cc1ccnc(Nc2cccc(-c3cnc([C@H]4CC[C@H](C(=O)N5CCC(N)C5)CC4)s3)n2)c1` (stereo partly drawn) [Compound A-311, (3-aminopyrrolidin-1-yl)-(trans-4-{5-[6-(4-methylpyridin-2-ylamino)pyridin-2-yl]thiazol-2-yl}cyclohexyl)methanone trihydrochloride], for which the IC50 in experiment [1] is below 100 nM; in experiment [2], 100 to 1000 nM.

With `Cc1ccnc(Nc2cccc(-c3cnc([C@H]4CC[C@H](C(=O)N5CCC(NS(C)(=O)=O)C5)CC4)s3)n2)c1` (stereo partly drawn) [Compound A-312, N-[1-(trans-4-{5-[6-(4-methylpyridin-2-ylamino)pyridin-2-yl]thiazol-2-yl]cyclohexanecarbonyl)pyrrolidin-3-yl}methanesulfonamide], the IC50 in experiment [1] is below 100 nM; in experiment [2], 100 to 1000 nM.

In the case of `Cc1ccnc(Nc2cccc(-c3cnc([C@H]4CC[C@H](C(=O)N5CCC(NC(=O)CO)C5)CC4)s3)n2)c1` (stereo partly shown) [Compound A-313], the IC50 in experiment [1] and in experiment [2] was 100 to 1000 nM in each case.

For the compound `Cc1ccnc(Nc2cccc(-c3cnc([C@H]4CC[C@H](CN5C[C@@H](O)[C@@H](O)C5)CC4)s3)n2)c1` [Compound A-314, (3R,4S)-1-(trans-4-{5-[6-(4-methylpyridin-2-ylamino)pyridin-2-yl]thiazol-2-yl}cyclohexylmethyl)pyrrolidin-3,4-diol], the results for the IC50 in experiment [1] and in experiment [2] were below 100 nM and above 1000 nM, respectively.

For the compound `Cc1ccnc(Nc2cccc(-c3cnc([C@H]4CC[C@H](CN5CCCC(O)C5)CC4)s3)n2)c1` (stereo partly shown) [Compound A-315], the values for the IC50 in experiment [1] and in experiment [2] were 100 to 1000 nM and above 1000 nM, respectively.

In the case of `Cc1ccnc(Nc2cccc(-c3cnc([C@H]4CC[C@H](C#N)CC4)s3)n2)c1` [Compound A-316, trans-4-{5-[6-(4-methylpyridin-2-ylamino)pyridin-2-yl]thiazol-2-yl}cyclohexanecarbonitrile], the IC50 in experiment [1] is below 100 nM; in experiment [2] it was 100 to 1000 nM.

Consider `Cc1ccnc(Nc2cccc(-c3cnc([C@H]4CC[C@@H](C#N)CC4)s3)n2)c1` [Compound A-317, cis-4-{5-[6-(4-methylpyridin-2-ylamino)pyridin-2-yl]thiazol-2-yl}cyclohexanecarbonitrile], for which the IC50 was below 100 nM in experiment [1] and 100 to 1000 nM in experiment [2].

For the compound `CC(=O)O[C@@H](c1ccccc1)c1ncc(-c2cccc(Nc3cc(C)ccn3)n2)s1` [Compound A-318], the IC50 is 100 to 1000 nM in experiment [1] and above 1000 nM in experiment [2].

`COc1ccnc(Nc2cccc(-c3cnc([C@@H]4CCC(=O)N4)s3)n2)c1` [Compound A-319, (S)-5-{5-[6-(4-methoxypyridin-2-ylamino)pyridin-2-yl]thiazol-2-yl}pyrrolidin-2-one]: the IC50 in experiment [1] was below 100 nM; in experiment [2], 100 to 1000 nM.

As to `COc1ccnc(Nc2cccc(-c3cnc([C@H](C)O)s3)n2)c1` [Compound A-320, (S)-1-{5-[6-(4-methoxypyridin-2-ylamino)pyridin-2-yl]thiazol-2-yl}ethanol], the IC50 in experiment [1] and in experiment [2] was below 100 nM throughout.

`C[C@H](O)c1ncc(-c2cccc(Nc3cc(CCO)ccn3)n2)s1` [Compound A-321, (S)-1-(5-{6-[4-(2-hydroxyethyl)pyridin-2-ylamino]pyridin-2-yl}thiazol-2-yl)ethanol]: the IC50 in experiment [1] and in experiment [2] was below 100 nM each time.

As for `C[C@H](O)c1ncc(-c2cccc(Nc3cc(Cl)ccn3)n2)s1` [Compound A-322, (S)-1-{5-[6-(4-chloropyridin-2-ylamino)pyridin-2-yl]thiazol-2-yl}ethanol], the IC50 in experiment [1] and in experiment [2] was below 100 nM throughout.

Regarding `O=C1CC[C@@H](c2ncc(-c3cccc(Nc4cc(Cl)ccn4)n3)s2)N1` [Compound A-323, (S)-5-{5-[6-(4-chloropyridin-2-ylamino)pyridin-2-yl]thiazol-2-yl}pyrrolidin-2-one], the IC50 in experiment [1] and in experiment [2] was below 100 nM in each case.

On to `Cc1ccnc(Nc2cccc(-c3cnc([C@H]4CC[C@H](c5noc(=O)[nH]5)CC4)s3)n2)c1` [Compound A-325, 3-(trans-4-{5-[6-(4-methylpyridin-2-ylamino)pyridin-2-yl]thiazol-2-yl}cyclohexyl)-4H-[1,2,4]oxazol-5-one], for which the results for the IC50 in experiment [1] and in experiment [2] were below 100 nM and 100 to 1000 nM, respectively.

On to `Cc1ccnc(Nc2cccc(-c3cnc(C4CCC(c5nnn[nH]5)CC4)s3)n2)c1` (stereo not shown) [Compound A-326, N-(4-methylpyridin-2-yl)-N-(6-{2-[4-(1H-tetrazol-5-yl)cyclohexyl]thiazol-5-yl}pyridin-2-yl)amine], for which the IC50 in experiment [1] is below 100 nM; in experiment [2], 100 to 1000 nM.

Regarding `CC(=O)N1CCC(Cc2ncc(-c3cccc(Nc4cc(C)ccn4)n3)s2)CC1` [Compound A-328], the IC50 in experiment [1] and in experiment [2] was 100 to 1000 nM each time.

Consider `O=C1CC[C@@H](c2ncc(-c3cccc(Nc4cc(CCO)ccn4)n3)s2)N1` [Compound A-330, (S)-5-(5-{6-[4-(2-hydroxyethyl)pyridin-2-ylamino]pyridin-2-yl}thiazol-2-yl)pyrrolidin-2-one], for which the IC50 in experiment [1] was below 100 nM; in experiment [2], 100 to 1000 nM.

The record behind these values is patent publication US7803801B2, “Aminopyridine compounds having Syk inhibitory activity” (Japan Tobacco, Inc., priority 2005, dated 2010).
